Test results taken from ChEMBL document CHEMBL1201862, “PubChem BioAssay data set” (2004).
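Values below derive from 48-hour exposures of cells grown in 96-well plates, with endpoints linearly interpolated between the two concentrations bracketing the appropriate inhibition level. GI50 = concentration required for 50% inhibition of growth.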 The source made the active and inactive calls. Cut-off read from the data, not from the text of the source: active = GI50 up to about 1.1 µM and inactive = higher.

Columns and labels:
Assay in all cases: NCI tumour cell line growth inhibition, 48 h
[1] = tested on: SK-OV-3
[2] = tested on: SK-MEL-2
[3] = tested on: CCRF-CEM
[4] = tested on: HCT-116
[5] = tested on: DMS-114
[6] = tested on: TK-10
[7] = tested on: SN12C
[8] = tested on: LOX IMVI
[9] = tested on: SK-MEL-28
[10] = tested on: SNB-19
[11] = tested on: HOP-62
[12] = tested on: SF-539
[13] = tested on: RXF 393
[14] = tested on: NCI-H522
[15] = tested on: NCI-H460
[16] = tested on: DLD-1
[17] = tested on: SR
[18] = tested on: RPMI-8226
[19] = tested on: XF498
[20] = tested on: IGROV-1
[21] = tested on: UACC-62
[22] = tested on: MOLT-4
[23] = tested on: CAKI-1
[24] = tested on: NCI-H23
[25] = tested on: HOP-18
[26] = tested on: HL-60
[27] = tested on: OVCAR-8
[28] = tested on: OVCAR-5
[29] = tested on: SW-620
[30] = tested on: HCC 2998
[31] = tested on: SF-268
[32] = tested on: Malme-3M
[33] = tested on: COLO 205
[34] = tested on: HCT-15
[35] = tested on: LXFL 529
[36] = tested on: 786-0
[37] = tested on: A498
[38] = tested on: OVCAR-3
[39] = tested on: DMS-273
[40] = tested on: OVCAR-4
[41] = tested on: ACHN
[42] = tested on: RXF 631
[43] = tested on: KM12
[44] = tested on: HT-29
[45] = tested on: SNB-75
[46] = tested on: EKVX
[47] = tested on: M14
[48] = tested on: UO-31
[49] = tested on: UACC-257
[50] = tested on: K562
[51] = tested on: SNB-78
[52] = tested on: A549
[53] = tested on: SF-295
[54] = tested on: U-251
[55] = tested on: SK-MEL-5
[56] = tested on: M19-MEL
[57] = tested on: HOP-92
[58] = tested on: KM-20L2
[59] = tested on: NCI-H226

For `Cc1ccc(C2CC(c3cccc([N+](=O)[O-])c3)=Nc3ccccc3S2)cc1` (centres undefined), the GI50 [1] was > 100 µM (inactive), the GI50 [2] was 38.3 µM (inactive) and the GI50 [3] was 23.2 µM (inactive). For the same molecule, the GI50 [4] was 13.3 µM (inactive), the GI50 [5] was 22.5 µM (inactive) and the GI50 [6] was 83.2 µM (inactive). For the same molecule, the GI50 [7] was 32.9 µM (inactive), the GI50 [8] was 21.6 µM (inactive) and the GI50 [9] was 62.4 µM (inactive). The GI50 [10] was > 58.3 µM (inactive), the GI50 [11] was > 62.8 µM (inactive) and the GI50 [12] was 51.5 µM (inactive). For the same molecule, the GI50 [13] was 29 µM (inactive), the GI50 [14] was 20.5 µM (inactive) and the GI50 [15] was 68.5 µM (inactive). The GI50 [16] was 20 µM (inactive), the GI50 [17] was 25.8 µM (inactive) and the GI50 [18] was 7.83 µM (inactive). The GI50 [19] was 21.4 µM (inactive), the GI50 [20] was 63.8 µM (inactive) and the GI50 [21] was 25.4 µM (inactive). The GI50 [22] was 25.5 µM (inactive), the GI50 [23] was 24.3 µM (inactive) and the GI50 [24] was 22.9 µM (inactive). For the same molecule, the GI50 [25] was 15.4 µM (inactive), the GI50 [26] was 20.1 µM (inactive) and the GI50 [27] was 24.2 µM (inactive). For the same molecule, the GI50 [28] was > 100 µM (inactive), the GI50 [29] was 16.1 µM (inactive) and the GI50 [30] was 82.2 µM (inactive). The GI50 [31] was 34.9 µM (inactive), the GI50 [32] was > 88.9 µM (inactive) and the GI50 [33] was 98.2 µM (inactive). For the same molecule, the GI50 [34] was 25.5 µM, the GI50 [35] was 27.2 µM (inactive) and the GI50 [36] was 21.8 µM (inactive). The GI50 [37] was > 54.3 µM (inactive), the GI50 [38] was 28.5 µM (inactive) and the GI50 [39] was 33.7 µM (inactive). The GI50 [40] was 44.6 µM (inactive), the GI50 [41] was 50.1 µM (inactive) and the GI50 [42] was > 93.8 µM (inactive). For the same molecule, the GI50 [43] was 18 µM (inactive), the GI50 [44] was 32.4 µM (inactive) and the GI50 [45] was 21 µM (inactive). The GI50 [46] was > 88.1 µM (inactive), the GI50 [47] was 31.8 µM (inactive) and the GI50 [48] was 20.8 µM (inactive). The GI50 [49] was 34.6 µM (inactive), the GI50 [50] was 20.6 µM (inactive) and the GI50 [51] was 23.2 µM (inactive). The GI50 [52] was 48.8 µM (inactive), the GI50 [53] was 50.7 µM (inactive) and the GI50 [54] was 27.5 µM (inactive). The GI50 [55] was 25.4 µM (inactive), the GI50 [56] was 40.4 µM (inactive) and the GI50 [57] was 7.01 µM (inactive). The GI50 [58] was 44.5 µM (inactive) and the GI50 [59] was > 44.1 µM (inactive).
